In US11512079B2, “Heterocycle substituted pyridine derivative antifungal agents” (Amplyx Pharmaceuticals, Inc., priority 2017, dated 2022):
In brackets after ≈: the same amount, converted by molar mass.

Tests used:
Type in all cases: cell-based
[1] = tested on: Rhizomucor pusillus 46342; assay: In vitro antifungal assay (Example IX), microdilution broth, MEC; details: minimum effective concentration (shortening of hyphae), 35° C., 40-48 h, RPMI1640
Description: (§1) Measurement of antifungal activity: […] Candida albicans 90028, Aspergillus fumigatus MYA3626, Rhizomucor pusillus 46342 and Cryptococcus neoformans […] strains were obtained from American Type Culture Collection (ATCC). […] (A. fumigatus) and 35° C. (R. pusillus). Water containing 1% Tween was directly added to the agar plate and gently agitated to wet and remove the Aspergillus conidia. For R. pusillus, water was added to the surface and gently massaged to wet and remove the spores. For both species, the conidia or spores and mycelial fragments were collected, followed by removal of mycelium, conidiophores and large clumps of conidia/spores. The resulting spore suspension was counted and diluted into RPMI1640 medium to adjust to a final suspension of 1-2×10^4 spores/mL. The suspension was used in the MEC measurement as described below. […] The compounds were weighed and DMSO was added to prepare a 10 mg/mL stock. The solutions were mixed by vortexing and sonication at 37° C. for 5-10 mins. The resulting solutions were sterile filtered using a PTFE filter, and aliquoted (12 μL or as needed) and stored at -20° C. Intermediate compound dilutions were prepared in sterile polypropylene tubes in 100% DMSO. […] This was validated by thorough mixing and reading at 600 nm on a microplate reader. The minimum concentration that led to shortening of hyphae as compared to hyphal growth in DMSO control wells was determined as the minimum effective concentration (MEC) for A. fumigatus and R. pusillus (as read for echinocandins). The use of the MIC and MEC endpoints against yeasts and molds, respectively has been described by Pfaller M A, Duncanson F, Messer S A, Moet G J, Jones […]. Antimicrob Agents Chemother. 2011. 55(11):5155-8. In vitro activity of a novel broad-spectrum antifungal, […], tested against Aspergillus spp. determined by CLSI and EUCAST broth microdilution methods. Results are shown in Table 2, and the letters indicate the following ranges in μg/mL: […]

[2] = tested on: Aspergillus fumigatus MYA3626; assay: as above; details: minimum effective concentration (shortening of hyphae), 35° C., 40-48 h, RPMI1640
Description: as §1

Candida albicans 90028 = assay: In vitro antifungal assay (Example IX), microdilution broth, MIC; details: minimum inhibitory concentration (≥50% inhibition), 35° C., 40-48 h, RPMI1640
Description: Measurement of antifungal activity: Antifungal activity of the compounds was evaluated in a microdilution broth assay as per Clinical and Laboratory Standard Institute methodology for yeast (for Candida and Cryptococcus) (1) and molds (for Aspergillus and Rhizomucor) (2). Candida albicans 90028, Aspergillus fumigatus MYA3626, Rhizomucor pusillus 46342 and Cryptococcus neoformans H99 strains were obtained from American Type Culture Collection (ATCC).
Preparation of Fungal Suspension. C. albicans 90028 and C. neoformans H99 strains were streaked from frozen stocks at −80° C. onto Sabouraud Dextrose Agar (SDA) plates. These were allowed to grow for 24 h (C. albicans) and 48 h (C. neoformans) at 35° C. before using them in the assay. 5-6 individual colonies were picked and diluted into sterile water to obtain a fungal suspension. The cell density of the suspension was determined and the culture diluted with RPMI1640 medium to obtain a fungal suspension of 2.5×10^3 cells/mL. The suspension was used in the MIC measurement as described below.
Preparation of Compound Stocks and Intermediate Dilutions: The compounds were weighed and DMSO was added to prepare a 10 mg/mL stock. The solutions were mixed by vortexing and sonication at 37° C. for 5-10 mins. The resulting solutions were sterile filtered using a PTFE filter, and aliquoted (12 μL or as needed) and stored at −20° C. Intermediate compound dilutions were prepared in sterile polypropylene tubes in 100% DMSO. The compound stock solution was first diluted in DMSO to obtain a concentration of […] to 0.19 μg/mL.
MIC/MEC Measurement: 99 μL 1 of the fungal suspension in RPMI1640 prepared as above was added to each well of a 96-well round bottom assay plate. 1 μL of the intermediate compound dilutions (200-0.19 μg/mL) were added to wells of the plate. This led to a 100-fold dilution of the intermediate dilutions resulting in a final compound concentration of 2-0.0019 μg/mL in the plate. 1 μL of DMSO was added to “No drug” control wells. The solutions were mixed by shaking on a plate shaker for 10 mins and plates incubated at 35° C. for 40-48 h (C. albicans, A. fumigatus, R. pusillus) and 72 h (Cryptococcus). […] This was validated by thorough mixing and reading at 600 nm on a microplate reader. The minimum concentration that led to shortening of hyphae as compared to hyphal growth in DMSO control wells was determined as the minimum effective concentration (MEC) for A. fumigatus and R. pusillus (as read for echinocandins). The use of the MIC and MEC endpoints against yeasts and molds, respectively has been described by Pfaller M A, Duncanson F, Messer S A, Moet G J, Jones R N, Castanheira M. Antimicrob Agents Chemother. 2011. 55(11):5155-8. In vitro activity of a novel broad-spectrum antifungal, E1210, tested against Aspergillus spp. determined by CLSI and EUCAST broth microdilution methods. Results are shown in Table 2, and the letters indicate the following ranges in μg/mL: […]

Row | MIC (Candida albicans 90028) [µg/mL] | SMILES | minimal effective concentration [1] [µg/mL] | minimal effective concentration [2] [µg/mL]
1 | 0.01 to 0.1 (≈ 0.0255 to 0.255 µM) | Nc1ncccc1-c1cc(Cc2ccc(OCc3cccc(Cl)c3)nc2)no1 [compound 85, 3-(3-((6-((3-chlorobenzyl)oxy)pyridin-3-yl)methyl)isoxazol-5-yl)pyridin-2-amine] | 0.1 to 1 | 0.01 to 0.1
2 | 0.1 to 1 (≈ 0.28 to 2.8 µM) | Nc1ccc(-c2cnn(Cc3ccc(OCc4ccccc4)nc3)c2)cn1 [compound 68, 5-(1-((6-(benzyloxy)pyridin-3-yl)methyl)-1H-pyrazol-4-yl)pyridin-2-amine] | > 1 | 0.1 to 1
3 | > 1 | Nc1ncccc1-c1cc(Cc2ccc(Cn3ccccc3=O)cc2)no1 [compound 126, 1-(4-((5-(2-aminopyridin-3-yl)isoxazol-3-yl)methyl)benzyl)pyridin-2(1H)-one] | > 1 | > 1
4 | > 1 | N#Cc1ccc(COc2ccc(Cc3cc(-c4cccnc4N)on3)cc2)cc1 [compound 113, 4-((4-((5-(2-aminopyridin-3-yl)isoxazol-3-yl)methyl)phenoxy)methyl)benzonitrile] | > 1 | 0.1 to 1
5 | > 1 | COc1ccc(COc2ccc(Cc3cc(-c4cccnc4N)on3)cc2)cc1 [compound 109, 3-(3-(4-((4-methoxybenzyl)oxy)benzyl)isoxazol-5-yl)pyridin-2-amine] | > 1 | > 1
6 | 0.1 to 1 (≈ 0.298 to 2.98 µM) | Nc1ncccc1-c1cc(Cc2ccc(N3CCCCC3)nc2)no1 [compound 230, 3-(3-((6-(piperidin-1-yl)pyridin-3-yl)methyl)isoxazol-5-yl)pyridin-2-amine] | > 1 | 0.1 to 1
7 | > 1 | Nc1ncccc1-c1cc(Cc2ccc(CNc3nc(=O)[nH]cc3F)cc2)no1 [compound 232, 4-((4-((5-(2-aminopyridin-3-yl)isoxazol-3-yl)methyl)benzyl)amino)-5-fluoropyrimidin-2(1H)-one] |  | > 1
8 | 0.1 to 1 (≈ 0.29 to 2.9 µM) | Nc1ncccc1-c1cc(Cc2ccnc(Oc3ccccc3)c2)no1 [compound 88] | > 1 | 0.1 to 1
9 | 0.1 to 1 (≈ 0.266 to 2.66 µM) | Nc1ncccc1-c1cc(Cc2cccc(OCc3ccccc3F)n2)no1 [compound 90, 3-(3-((6-((2-fluorobenzyl)oxy)pyridin-2-yl)methyl)isoxazol-5-yl)pyridin-2-amine] | > 1 | > 1

The next lines start with the compound.

Row | SMILES | MIC (Candida albicans 90028) [µg/mL] | minimal effective concentration [1] [µg/mL] | minimal effective concentration [2] [µg/mL]
10 | CC(C)=CCOc1ccc(Cc2cc(-c3cccnc3N)on2)cn1 [Example 166, 3-(3-((6-((3-methylbut-2-en-1-yl)oxy)pyridin-3-yl)methyl)isoxazol-5-yl)pyridin-2-amine] | 0.1 to 1 (≈ 0.297 to 2.97 µM) | 0.1 to 1 | 0.01 to 0.1
11 | Nc1ncccc1-c1cc(Cc2ccc(OCCc3c(F)cccc3Cl)nc2)no1 [Example 159, 3-(3-((6-(2-chloro-6-fluorophenethoxy)pyridin-3-yl)methyl)isoxazol-5-yl)pyridin-2-amine] | 0.1 to 1 (≈ 0.235 to 2.35 µM) | > 1 | 0.1 to 1
12 | CC(Oc1ccc(Cc2cc(-c3cccnc3N)on2)cn1)c1ccccc1F (centres unmarked) [compound 56, 3-(3-((6-(1-(2-fluorophenyl)ethoxy)pyridin-3-yl)methyl)isoxazol-5-yl)pyridin-2-amine] | 0.1 to 1 (≈ 0.256 to 2.56 µM) | > 1 | 0.1 to 1
13 | Nc1ncccc1-c1cc(Cc2ccc(COc3ccc(Cl)c4ccccc34)cc2)no1 [compound 25, 3-(3-(4-(((4-chloronaphthalen-1-yl)oxy)methyl)benzyl)isoxazol-5-yl)pyridin-2-amine] | > 1 | > 1 | > 1
14 | Cc1occc1COc1ccc(Cc2cc(-c3cccnc3N)on2)cn1 [compound 52, 3-(3-((6-((2-methylfuran-3-yl)methoxy)pyridin-3-yl)methyl)isoxazol-5-yl)pyridin-2-amine] | 0.1 to 1 (≈ 0.276 to 2.76 µM) | > 1 | 0.1 to 1
15 | CC(C)Cn1cc(Cc2ccc(Cc3cc(-c4cccnc4N)on3)cc2)cn1 [compound 16, 3-(3-(4-((1-isobutyl-1H-pyrazol-4-yl)methyl)benzyl)isoxazol-5-yl)pyridin-2-amine] | 0.1 to 1 (≈ 0.258 to 2.58 µM) | 0.1 to 1 | 0.1 to 1
16 | Nc1ncccc1-c1cc(Cc2cccc(OCCc3cccc(F)c3)n2)no1 [Example 147, 3-(3-((6-(3-fluorophenethoxy)pyridin-2-yl)methyl)isoxazol-5-yl)pyridin-2-amine] | > 1 | > 1 | > 1
17 | Cc1cnc(COc2ccc(Cc3cc(-c4cccnc4N)on3)cc2)nc1 [compound 29, 3-(3-(4-((5-methylpyrimidin-2-yl)methoxy)benzyl)isoxazol-5-yl)pyridin-2-amine] | 0.1 to 1 (≈ 0.268 to 2.68 µM) | > 1 | 0.1 to 1
18 | c1ccc(Sc2ccc(Cn3cc(-c4cccnc4)cn3)cn2)cc1 [compound 66, 2-(phenylthio)-5-((4-(pyridin-3-yl)-1H-pyrazol-1-yl)methyl)pyridine] | 0.1 to 1 (≈ 0.29 to 2.9 µM) | > 1 | 0.1 to 1
19 | Nc1ncccc1-c1cc(Cc2ccc(OCc3cccc4ccccc34)nc2)no1 [Example 164, 3-(3-((6-(naphthalen-1-ylmethoxy)pyridin-3-yl)methyl)isoxazol-5-yl)pyridin-2-amine] | > 1 | > 1 | 0.1 to 1
20 | Nc1ncccc1-c1cnn(Cc2ccc(Oc3ccccc3)nc2)c1 [compound 63, 3-(1-((6-phenoxypyridin-3-yl)methyl)-1H-pyrazol-4-yl)pyridin-2-amine] | 0.1 to 1 (≈ 0.291 to 2.91 µM) | > 1 | 
21 | Nc1ncccc1-c1cc(Cc2ccc(OCc3cc(Cl)ccn3)nc2)no1 [compound 92, 3-(3-((6-((4-chloropyridin-2-yl)methoxy)pyridin-3-yl)methyl)isoxazol-5-yl)pyridin-2-amine] |  | 0.1 to 1 | 
22 | c1ccc(Oc2ccc(Cn3cc(-c4cccnc4)cn3)cn2)cc1 [compound 64, 2-phenoxy-5-((4-(pyridin-3-yl)-1H-pyrazol-1-yl)methyl)pyridine] | 0.1 to 1 (≈ 0.305 to 3.05 µM) | > 1 | 
23 | Nc1ncccc1-c1cc(Cc2ccc(OCCc3cccc(F)c3)nc2)no1 [compound 91, 3-(3-((6-(3-fluorophenethoxy)pyridin-3-yl)methyl)isoxazol-5-yl)pyridin-2-amine] |  | > 1 | 
